From PMC8058344, “ARIH1 signaling promotes anti-tumor immunity by targeting PD-L1 for proteasomal degradation” (Nature Communications, 2021)

Tests used:
[1] = test system: PD-L1 Ser279; test: Immunoblots with phospho-specific antibody against PD-L1 Ser279; format: cell-based, human; conditions: endogenous (H1975, 2 h) and recombinant (HEK293T, 10 μM, 2 h) PD-L1
Protocol: Fig. 2 Phosphorylation on S279/S283 impairs the stability of PD-L1. a Mapping PD-L1 phosphorylation sites following ES-072 treatment. HEK293T cells were transfected with Flag-PD-L1 and treated with 10 μM ES-072 for 48 h. Immunoprecipitated PD-L1 was analyzed by mass spectrometry following phosphopeptide enrichment. Peptide ionization data corresponding to Ser279/283 are shown. b Schematic diagram of phosphorylated sites on PD-L1. Full-length PD-L1 was separated into an extracellular domain (ECD) and intracellular domain (ICD). SP: signal peptide; TM: transmembrane domain. c Schematic diagram of phosphorylated sites, S279 and S283 in the ICD of PD-L1. Positions of phosphorylated sites were labeled in red. […] Scale bars represent 50 μm. i, j Quantification of IHC analysis for p-PD-L1 (Ser279) (i) and PD-L1 (j) in h. […]
For western blot analysis, cells were collected and washed with PBS, then lysed in radioimmunoprecipitation assay (RIPA) buffer (1% Triton X-100, 100 mM Tris-HCl pH 8.8, 100 mM NaCl, 0.5 mM EDTA). […] The supernatant was collected and the protein concentration was measured by bicinchoninic acid reaction. […] Signals were detected using chemiluminescence reagents (#4AW001-500, 4A649 Biotech, Co.).

[2] = biological target: EGFR T790M (Homo sapiens, UniProt P00533, T790M); test: In vitro kinase specificity profiling; format: biochemical
[3] = biological target: JAK2 (Homo sapiens, UniProt O60674); test: In vitro kinase specificity profiling; format: biochemical
Sequence of JAK2 (O60674 whole entry): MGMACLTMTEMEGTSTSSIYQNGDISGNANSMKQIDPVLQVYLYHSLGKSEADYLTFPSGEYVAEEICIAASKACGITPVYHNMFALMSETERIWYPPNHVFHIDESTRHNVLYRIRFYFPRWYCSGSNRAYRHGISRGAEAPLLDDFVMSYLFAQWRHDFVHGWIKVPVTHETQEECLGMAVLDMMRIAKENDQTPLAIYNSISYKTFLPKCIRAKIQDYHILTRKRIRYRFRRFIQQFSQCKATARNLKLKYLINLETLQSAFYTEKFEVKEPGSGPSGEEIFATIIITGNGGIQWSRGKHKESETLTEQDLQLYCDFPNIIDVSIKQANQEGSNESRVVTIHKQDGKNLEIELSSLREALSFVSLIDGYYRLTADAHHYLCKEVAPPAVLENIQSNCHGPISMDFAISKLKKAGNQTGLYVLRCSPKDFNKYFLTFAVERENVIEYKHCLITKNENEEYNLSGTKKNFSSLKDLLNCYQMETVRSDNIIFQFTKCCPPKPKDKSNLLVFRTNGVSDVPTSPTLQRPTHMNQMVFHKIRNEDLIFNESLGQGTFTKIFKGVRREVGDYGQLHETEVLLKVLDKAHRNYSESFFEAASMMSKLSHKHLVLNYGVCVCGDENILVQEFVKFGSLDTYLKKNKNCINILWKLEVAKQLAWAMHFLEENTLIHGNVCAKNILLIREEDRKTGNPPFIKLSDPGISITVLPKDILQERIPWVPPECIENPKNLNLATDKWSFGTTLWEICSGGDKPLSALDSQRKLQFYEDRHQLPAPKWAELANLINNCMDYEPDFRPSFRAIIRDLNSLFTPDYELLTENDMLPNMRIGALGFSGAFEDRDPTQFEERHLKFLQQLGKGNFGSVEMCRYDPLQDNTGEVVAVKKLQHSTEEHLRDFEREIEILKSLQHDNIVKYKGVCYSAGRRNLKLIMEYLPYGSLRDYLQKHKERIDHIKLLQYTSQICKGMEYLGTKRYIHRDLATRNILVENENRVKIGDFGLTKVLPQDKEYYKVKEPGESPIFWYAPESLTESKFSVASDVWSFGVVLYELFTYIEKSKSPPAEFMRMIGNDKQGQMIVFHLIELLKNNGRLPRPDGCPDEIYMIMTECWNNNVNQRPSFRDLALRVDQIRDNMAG

Sequence of EGFR T790M (P00533 25-1210 T790M): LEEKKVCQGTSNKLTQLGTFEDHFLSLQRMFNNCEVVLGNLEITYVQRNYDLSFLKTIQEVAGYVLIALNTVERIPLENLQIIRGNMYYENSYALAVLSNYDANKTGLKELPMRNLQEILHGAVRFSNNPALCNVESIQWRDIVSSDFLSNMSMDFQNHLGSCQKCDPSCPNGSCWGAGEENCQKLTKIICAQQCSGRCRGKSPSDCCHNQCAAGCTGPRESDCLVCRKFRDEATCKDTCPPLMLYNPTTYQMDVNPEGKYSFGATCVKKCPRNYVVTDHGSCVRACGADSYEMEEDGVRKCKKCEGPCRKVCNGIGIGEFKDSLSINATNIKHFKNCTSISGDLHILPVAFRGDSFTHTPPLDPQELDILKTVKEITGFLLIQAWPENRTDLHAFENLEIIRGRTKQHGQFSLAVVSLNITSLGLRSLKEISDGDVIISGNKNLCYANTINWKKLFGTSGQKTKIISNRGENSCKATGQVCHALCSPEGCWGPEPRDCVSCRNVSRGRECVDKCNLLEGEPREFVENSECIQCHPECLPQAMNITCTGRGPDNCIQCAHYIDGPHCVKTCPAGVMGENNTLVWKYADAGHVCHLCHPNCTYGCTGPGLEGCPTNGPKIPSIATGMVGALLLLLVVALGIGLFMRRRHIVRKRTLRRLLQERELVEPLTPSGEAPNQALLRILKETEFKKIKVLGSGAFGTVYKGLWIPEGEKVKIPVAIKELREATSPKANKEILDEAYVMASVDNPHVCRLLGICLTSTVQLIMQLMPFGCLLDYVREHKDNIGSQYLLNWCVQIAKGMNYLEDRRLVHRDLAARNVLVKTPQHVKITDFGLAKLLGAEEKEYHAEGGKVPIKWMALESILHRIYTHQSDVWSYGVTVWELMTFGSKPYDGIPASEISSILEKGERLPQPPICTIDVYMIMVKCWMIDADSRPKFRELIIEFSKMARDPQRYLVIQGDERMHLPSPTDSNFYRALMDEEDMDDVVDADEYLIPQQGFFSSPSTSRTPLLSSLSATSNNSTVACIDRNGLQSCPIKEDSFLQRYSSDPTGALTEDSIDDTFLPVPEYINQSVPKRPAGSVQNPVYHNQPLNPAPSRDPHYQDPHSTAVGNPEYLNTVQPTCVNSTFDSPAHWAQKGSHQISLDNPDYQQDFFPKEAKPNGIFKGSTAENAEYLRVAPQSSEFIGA

IC50 [2]: < 0.5 nM
IC50 [3]: 4.96 µM
Compound: C=CC(=O)Nc1cccc(Nc2nc(Nc3ccc(N4CCN(C)CC4)nc3OC)ncc2C(F)(F)F)c1 [ES-072]
phosphorylation of PD-L1 at Ser279 [1]: robust phosphorylation
